# In patent US8828992B2, “Substituted azole derivatives, pharmaceutical composition containing the derivatives, and method for treating Parkinson's disease using the same” (priority 2009, dated 2014):
# System: dopamine (DA) in the striata of MPTP-treated mice
# Assay: Levels of dopamine in the striata of MPTP-treated mice (HPLC)
# Type: in vivo
# Details: Mus musculus, po, 168 h, 10 mpk, 7 days after MPTP, read-out: Levels of dopamine (DA) in the striata, compared to a control group %
# Protocol: (§1) A. MPTP (1-methyl-4-phenyl-1,2,3,6-tetrahydropyridine) and drug treatment MPTP (20 mg/kg, free base; Sigma, St. louis, Mo.) was administered to an 8 week old (20-25 g) male C57BL/6 test mouse intraperitoneally three times a day at the interval of 2 hours to construct a model (Breidert et al., 2002; Lichuan Yang, Shuei Sugama, Jason W. Chirichigno, Jason Gregorio, Stefan Lorenzl, Dong H. Shin, Susan E. Browne, Yoshinori Shimizu, Tong H. Joh, M. Flint Beal, l and David S. Alber. (2003) Minocycline Enhances MPTP Toxicity to Dopaminergic Neurons. J Neurosci Res. 74:278-285). In order to observe the protective effects of the compound as a candidate drug, the compound was dissolved in a solution containing 10% dimethylsulfoxide (DMSO), 10% Cremophor, and 40% polyethyleneglycol (PEG), […] treatment. Rasagiline as a control drug was also dissolved in the same solution, and the resulting solution was administered at the same doses in the same manner as above. A control group (Sham) in which MPTP was not administered was constructed by intraperitoneally administering saline solution to the group instead of MPTP in the same manner as above and orally administering the same solution 1 hour before and after PBS treatment.
# The changes of contents of dopamine and dopamine metabolites in the striatum in accordance with administrations of MPTP and the drug were measured by high performance liquid chromatography (HPLC). At 7 days after administration of the drug, the animal was sacrificed by cervical vertebra dislocation and the brain tissues were immediately isolated from the animal. 0.5 ml of iced solution for HPLC analysis (0.1 M perchloric acid and 0.1 mM EDTA) was added to a striatum obtained from the isolated brain tissues, and an ultrasonic grinder was used to prepare a tissue homogenate. The tissue homogenate was centrifuged at 12,000 rpm for 15 minutes, and its supernatant was filtered through nitrocellulose membrane filter (0.2 um, Millipore). For HPLC analysis, uBondapak™ C18 column (4.6×150 mm, particle size 10 μm: Shisheido, Japan) was used, the flow rate of the mobile phase (0.07 M monobasic sodium phosphate), 1 mM sodium octasulfonic acid, 0.1 uM EDTA, 5% acetonitrile, pH 3.2) was maintained at 0.7 ml/min, and the electrode potential of the electrochemical detector (ICA-5000, Japan) was set at 700 mV.
row,SMILES,response vs control in vivo at 10 mg/kg [%]
1,"NC(=O)OCc1cc(-c2ccc(OCc3c(Cl)cncc3Cl)cc2)no1 [Example 69, Carbamic acid 3-[4-(3,5-dichloro-pyridin-4-ylmethoxy)-phenyl]-isoxazol-5-ylmethyl ester]",100
2,"NC(=O)OCc1cc(-c2ccc(OCc3ccccn3)cc2)no1 [Example 65, Carbamic acid 3-[4-(pyridin-2-ylmethoxy)-phenyl]-isoxazol-5-ylmethyl ester]",74.9
3,"NC(=O)OCc1cc(-c2ccc(OCn3nnc4ccccc43)cc2)no1 [Example 71, Carbamic acid 3-[4-(benzotriazol-1-ylmethoxy)-phenyl]-isoxazol-5-ylmethyl ester]",41.1
4,"CNC(=O)OCc1cc(-c2ccc(OCc3ccccc3)cc2)no1 [Example 121, methyl-carbamic acid 3-(4-benzyloxy-phenyl)-isoxazol-5-ylmethyl ester]",97.9
5,"NC(=O)OCc1cc(-c2ccc(OCc3ccccc3)cc2)no1 [Example 1, carbamic acid 3-(4-benzyloxy-phenyl)-isoxazole-5-ylmethyl ester]",112
6,"NC(=O)OCc1cc(-c2ccc(OCc3ccncc3)cc2)no1 [Example 67, Carbamic acid 3-[4-(pyridin-4-ylmethoxy)-phenyl]-isoxazol-5-ylmethyl ester]",80.7
7,"Fc1cccc(F)c1COc1ccc(-c2cc(Cn3ccnc3)on2)cc1 [Example 143, 3-[4-(2,6-difluoro-benzyloxy)-phenyl]-5-imidazol-1-ylmethyl-isoxazole]",46.1

# Target: T1, Monoamineoxidase B type human-derived enzyme (Homo sapiens, UniProt P27338)
# T1 sequence (P27338 1-520): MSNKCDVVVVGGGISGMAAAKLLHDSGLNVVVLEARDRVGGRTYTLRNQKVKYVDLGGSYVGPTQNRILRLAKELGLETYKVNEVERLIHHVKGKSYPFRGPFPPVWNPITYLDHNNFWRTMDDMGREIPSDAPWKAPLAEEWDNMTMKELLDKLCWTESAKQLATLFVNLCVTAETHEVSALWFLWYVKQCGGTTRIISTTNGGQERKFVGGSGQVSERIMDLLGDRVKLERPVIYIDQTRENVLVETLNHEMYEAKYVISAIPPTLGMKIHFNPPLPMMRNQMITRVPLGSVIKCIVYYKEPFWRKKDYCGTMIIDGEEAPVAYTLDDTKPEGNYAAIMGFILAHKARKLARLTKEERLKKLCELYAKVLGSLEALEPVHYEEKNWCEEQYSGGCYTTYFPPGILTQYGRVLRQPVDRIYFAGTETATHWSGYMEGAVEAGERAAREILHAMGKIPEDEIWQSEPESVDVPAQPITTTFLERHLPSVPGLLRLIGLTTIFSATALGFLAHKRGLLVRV
# Assay: Inhibitory effects on the activity of MAO-B (Amplex Red fluorescence, benzylamine substrate)
# Type: biochemical
# Details: read-out: Inhibitory effects (%) on the activity of MAO-B
# Method in brief: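 Human MAO-B, diluted 1:200 in 0.05 M sodium phosphate pH 7.4, was pre-incubated with compound for 30 min. It was then mixed 1:1 with working buffer holding 400 μM Amplex Red, 2 U/ml HRP and 2 mM benzylamine (working-buffer levels). Fluorescence (Ex 563/Em 587 nm) was read over 30 min.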
row,SMILES,inhibition at 0.01 µM [%]
1,"NC(=O)OCc1cc(-c2ccc(OCc3ccccn3)cc2)no1 [Example 65, Carbamic acid 3-[4-(pyridin-2-ylmethoxy)-phenyl]-isoxazol-5-ylmethyl ester]",89.9
2,"NC(=O)OCc1cc(-c2ccc(OCc3ccccc3)cc2)no1 [Example 1, carbamic acid 3-(4-benzyloxy-phenyl)-isoxazole-5-ylmethyl ester]",96.6
3,"NC(=O)OCc1cc(-c2ccc(OCc3ccncc3)cc2)no1 [Example 67, Carbamic acid 3-[4-(pyridin-4-ylmethoxy)-phenyl]-isoxazol-5-ylmethyl ester]",94.2

# Same assay, conditions: treatment concentration 10 nM; read-out: Inhibitory effects (%) on the activity of MAO-B
row,SMILES,inhibition at 0.01 µM [%]
1,"NC(=O)OCc1cc(-c2ccc(OCc3c(Cl)cncc3Cl)cc2)no1 [Example 69, Carbamic acid 3-[4-(3,5-dichloro-pyridin-4-ylmethoxy)-phenyl]-isoxazol-5-ylmethyl ester]",83.6
2,"NC(=O)OCc1cc(-c2ccc(OCn3nnc4ccccc43)cc2)no1 [Example 71, Carbamic acid 3-[4-(benzotriazol-1-ylmethoxy)-phenyl]-isoxazol-5-ylmethyl ester]",56
3,"CNC(=O)OCc1cc(-c2ccc(OCc3ccccc3)cc2)no1 [Example 121, methyl-carbamic acid 3-(4-benzyloxy-phenyl)-isoxazol-5-ylmethyl ester]",82.8
4,"Fc1cccc(F)c1COc1ccc(-c2cc(Cn3ccnc3)on2)cc1 [Example 143, 3-[4-(2,6-difluoro-benzyloxy)-phenyl]-5-imidazol-1-ylmethyl-isoxazole]",98.1

# System: dopamine (DA) in the striatum of a MPTP-treated mouse
# Assay: Combined administration with Levodopa group: dopamine in the striatum of MPTP-treated mouse (HPLC)
# Type: in vivo
# Details: compound 1 mg/kg PO co-administered with Levodopa group (Levodopa 50 mg/kg + Benzerazide 25 mg/kg IP); 1 hr after Levodopa
# Protocol: MPTP (20 mg/kg, free base; Sigma, St. louis, Mo.) was administered to an 8 week old (20-25 g) male C57BL/6 test mouse intraperitoneally at the interval of 2 hours to construct a model.
# In order to observe the effects of combined administration of a compound of the present invention and Levodopa, the compound of the present invention was dissolved in a solution containing 0.02 ml of dimethylsulfoxide (DMSO), 0.02 ml of Cremophor, 0.08 ml of polyethyleneglycol (PEG), and 0.08 ml of physiological saline. The resulting solution was orally administered at doses of 1 mg/kg one week after the MPTP treatment, and a Levodopa group containing Levodopa at 50 mg/kg and Benzerazide at 25 mg/kg was intraperitoneally administered 1 hour later.
# A single administration of the Levodopa group in the following Table 4 indicates values resulting from a MPTP (toxin) treatment followed by an administration of the Levodopa group compared to the treatment results of a Levodopa single administration group of Levodopa and Benzerazide.
# At 1 hour and 3 hours after administration of Levodopa, the animals were sacrificed by cervical vertebra dislocation and the brain tissues were immediately isolated from the animals. 0.5 me of iced solution for HPLC analysis (0.1 M perchloric acid and 0.1 mM EDTA) was added to a striatum obtained from the isolated brain tissues, and an ultrasonic grinder was used to prepare a tissue homogenate. The tissue homogenate was centrifuged at 12,000 rpm for 15 minutes, and its supernatant was filtered through nitrocellulose membrane filter (0.2 um, Millipore). For HPLC analysis, uBondapak™ C18 column (4.6×150 mm, particle size 10 μm: Shisheido, Japan) was used, the flow rate of the mobile phase (0.07 M monobasic sodium phosphate, 1 mM sodium octasulfonic acid, 0.1 uM EDTA, 5% acetonitrile, pH 3.2) was maintained at 0.5 me/min, and the electrode potential of the electrochemical detector (CouloChem III, ESA, Japan) was set at 350 mV.
row,SMILES,"Concentration of dopamine compared to a control group %, 1 hr [%]"
1,"NC(=O)OCc1cc(-c2ccc(OCc3c(Cl)cncc3Cl)cc2)no1 [Example 69, Carbamic acid 3-[4-(3,5-dichloro-pyridin-4-ylmethoxy)-phenyl]-isoxazol-5-ylmethyl ester]",205.2
2,"CNC(=O)OCc1cc(-c2ccc(OCc3ccccc3)cc2)no1 [Example 121, methyl-carbamic acid 3-(4-benzyloxy-phenyl)-isoxazol-5-ylmethyl ester]",144.6
3,"NC(=O)OCc1cc(-c2ccc(OCc3ccccc3)cc2)no1 [Example 1, carbamic acid 3-(4-benzyloxy-phenyl)-isoxazole-5-ylmethyl ester]",129.5

# Same assay, conditions: compound 1 mg/kg PO co-administered with Levodopa group (Levodopa 50 mg/kg + Benzerazide 25 mg/kg IP); 3 hr after Levodopa
row,SMILES,"Concentration of dopamine compared to a control group %, 3 hr [%]"
1,"NC(=O)OCc1cc(-c2ccc(OCc3c(Cl)cncc3Cl)cc2)no1 [Example 69, Carbamic acid 3-[4-(3,5-dichloro-pyridin-4-ylmethoxy)-phenyl]-isoxazol-5-ylmethyl ester]",200.4
2,"CNC(=O)OCc1cc(-c2ccc(OCc3ccccc3)cc2)no1 [Example 121, methyl-carbamic acid 3-(4-benzyloxy-phenyl)-isoxazol-5-ylmethyl ester]",89.2
3,"NC(=O)OCc1cc(-c2ccc(OCc3ccccc3)cc2)no1 [Example 1, carbamic acid 3-(4-benzyloxy-phenyl)-isoxazole-5-ylmethyl ester]",90.8

# System: MPTP-induced mouse model
# Assay: Tail suspension test in MPTP-induced mouse model of Parkinson's disease
# Type: in vivo
# Details: Mus musculus, 168 h; administration concentration 10 (10 mg/kg), oral, 7 days after MPTP; % of control group (Sham); read-out: Mobility (%)
# Protocol: as §1
# A tail suspension test was performed in order to measure the induction degree of behavioral dysfunctions in accordance with administration of MPTP and a drug. At 7 days after administration of the drug, a round stainless steel rod (width: 1 cm) was affixed to a cage (width: 16 cm, height: 40 cm) 35 cm above from the surface shielded by black wooden structures in the left and right sides to perform experiments. The time for which the animal moved for a total period of 6 minutes was measured in seconds to evaluate the drug action.
# Mobility refers to an expression of the measurement of the time for which the animal moved with its tail hung high as a percentage compared to the measurement of a control group.
row,SMILES,response vs control in vivo at 10 mg/kg [%]
1,"NC(=O)OCc1cc(-c2ccc(OCc3c(Cl)cncc3Cl)cc2)no1 [Example 69, Carbamic acid 3-[4-(3,5-dichloro-pyridin-4-ylmethoxy)-phenyl]-isoxazol-5-ylmethyl ester]",97.4
2,"NC(=O)OCc1cc(-c2ccc(OCc3ccccn3)cc2)no1 [Example 65, Carbamic acid 3-[4-(pyridin-2-ylmethoxy)-phenyl]-isoxazol-5-ylmethyl ester]",94.1
3,"CNC(=O)OCc1cc(-c2ccc(OCc3ccccc3)cc2)no1 [Example 121, methyl-carbamic acid 3-(4-benzyloxy-phenyl)-isoxazol-5-ylmethyl ester]",91.2
4,"NC(=O)OCc1cc(-c2ccc(OCc3ccccc3)cc2)no1 [Example 1, carbamic acid 3-(4-benzyloxy-phenyl)-isoxazole-5-ylmethyl ester]",113
5,"NC(=O)OCc1cc(-c2ccc(OCc3ccncc3)cc2)no1 [Example 67, Carbamic acid 3-[4-(pyridin-4-ylmethoxy)-phenyl]-isoxazol-5-ylmethyl ester]",88.9
6,"Fc1cccc(F)c1COc1ccc(-c2cc(Cn3ccnc3)on2)cc1 [Example 143, 3-[4-(2,6-difluoro-benzyloxy)-phenyl]-5-imidazol-1-ylmethyl-isoxazole]",98.9
